The results in this text go back to ChEMBL document CHEMBL4725381, “Synthesis and activity of isoleucine sulfonamide derivatives as novel botulinum neurotoxin serotype A light chain inhibitors” (Bioorg Med Chem, 2020).

The target of assay [1] is Botulinum neurotoxin type A (Clostridium botulinum) (UniProt P0DPI0). The experiment in a line: Inhibition of Clostridium botulinum BoNT/A light chain at 30 uM using SNAPtide as substrate preincubated with enzyme for 2 mins followed by substrate addition and measured for 0-5 mins by FRET assay relative to control.
For assay [2], the target named is Botulinum neurotoxin type A (Clostridium botulinum, UniProt P0DPI0). Nature of the assay: Inhibition of Clostridium botulinum BoNT/A light chain using SNAPtide as substrate preincubated with enzyme for 2 mins followed by substrate addition and measured for 0-5 mins by FRET assay.

SMILES strings stand for the structures. The source made the active and inactive calls. The calls are words filed in the database; no cut-off is given here.

Chain of Botulinum neurotoxin type A (Clostridium botulinum) (P0DPI0 2-448 limits assumed): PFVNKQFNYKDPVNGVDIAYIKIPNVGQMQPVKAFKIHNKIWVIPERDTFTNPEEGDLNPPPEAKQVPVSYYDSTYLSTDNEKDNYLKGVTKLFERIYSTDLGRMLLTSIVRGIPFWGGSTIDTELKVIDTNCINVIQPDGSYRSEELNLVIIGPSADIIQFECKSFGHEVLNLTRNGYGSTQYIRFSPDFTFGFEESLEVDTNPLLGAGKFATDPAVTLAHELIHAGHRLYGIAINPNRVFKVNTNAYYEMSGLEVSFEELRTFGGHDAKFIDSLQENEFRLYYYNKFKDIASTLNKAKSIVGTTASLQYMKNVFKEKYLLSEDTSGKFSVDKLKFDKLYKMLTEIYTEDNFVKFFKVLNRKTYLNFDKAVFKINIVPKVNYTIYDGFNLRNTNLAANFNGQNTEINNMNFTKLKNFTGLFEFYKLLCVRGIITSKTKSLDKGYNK
Chain of Botulinum neurotoxin type A (P0DPI0 2-448 limits assumed): as above

As a reminder, the inhibition is the share of the control response that was lost under treatment. `CC[C@H](C)[C@H](NS(=O)(=O)c1cccc(-c2cccc([N+](=O)[O-])c2)c1)C(=O)NO` came in with an inhibition in assay [1] of 34%.
The same measure, in the same setting: the same measure for `O=C(NO)C1(NS(=O)(=O)c2cccc(-c3cc4ccccc4o3)c2)CC1`: “inactive”.
`CC[C@H](C)[C@H](NC(=O)c1cccc(-c2cccc(Cl)c2)c1)C(=O)NO`: the inhibition in assay [1] came to 64%.
What is called IC50 is the point on the concentration scale where inhibition reaches its midpoint. A high value points to lower potency. Regarding `CC[C@@H](C)[C@@H](NS(=O)(=O)c1cccc(-c2cc3ccccc3o2)c1)C(=O)NO`, the inhibition in assay [1] amounted to 94%. For the same compound, the half-maximal inhibitory concentration (IC50) in assay [2] came to 14 µM.
Turning to `CC[C@H](C)[C@H](NS(=O)(=O)c1cccc(-c2ccccc2Cl)c1)C(=O)NO`, the inhibition in assay [1] was determined as 50%.
`CC[C@H](C)[C@H](NS(=O)(=O)c1cccc(-c2cc(Cl)ccc2Cl)c1)C(=O)NO`: the inhibition in assay [1] was 29%.
In the case of `CCCC[C@H](NS(=O)(=O)c1cccc(-c2cc3ccccc3o2)c1)C(=O)NO`, the inhibition in assay [1] is 44%.
With `CC[C@H](C)[C@H](NS(=O)(=O)c1cccc(-c2ccc([N+](=O)[O-])cc2)c1)C(=O)NO`, the inhibition in assay [1] worked out at 41%.
For the compound `CC[C@H](C)[C@H](NS(=O)(=O)c1cccc(-c2cc3ccccc3o2)c1)C(=O)NO`, in assay [1], the inhibition was determined as 61%.
Compound `CC[C@H](C)[C@H](NC(=O)c1cccc(-c2ccco2)c1)C(=O)NO` had an inhibition in assay [1] of 58%.
In the case of `CC(C)C[C@@H](NS(=O)(=O)c1cccc(-c2cc3ccccc3o2)c1)C(=O)NO`, in assay [1], the inhibition stood at 86%.
Still for that read-out and setting: the same measure for `CC[C@H](C)[C@H](NS(=O)(=O)c1cccc(-c2ccc(Cl)c(Cl)c2)c1)C(=O)NO`: 26%.
`CC[C@@H](C)[C@@H](NS(=O)(=O)c1cccc(-c2ccccc2Cl)c1)C(=O)NO` showed an IC50 in assay [2] of 0.587 µM.
In assay [1], `CC[C@H](C)[C@H](NS(=O)(=O)c1cccc(-c2cccc(Cl)c2)c1)C(=O)NO` registered an inhibition of 44%.
In the case of `CC(C)C[C@@H](NC(=O)c1cccc(-c2cc3ccccc3o2)c1)C(=O)NO`, in assay [1], the inhibition worked out at 58%.
In turn, `CC[C@@H](C)[C@@H](NC(=O)c1cccc(-c2cc3ccccc3o2)c1)C(=O)NO` returned an inhibition in assay [1] of 16%.
Regarding `CC[C@H](C)[C@H](NC(=O)c1cccc(-c2cc(Cl)ccc2Cl)c1)C(=O)NO`, in assay [1], the inhibition worked out at 68%.
Take `CC[C@H](C)[C@H](NS(=O)(=O)c1cccc(-c2ccoc2)c1)C(=O)NO`: in assay [1], the inhibition was 14%.
The same measure, in the same setting: the same measure for `CC[C@H](C)[C@H](NS(=O)(=O)c1cccc(-c2c(Cl)cccc2Cl)c1)C(=O)NO`: 66%; for `CC[C@H](C)[C@H](NS(=O)(=O)c1cccc(-c2ccco2)c1)C(=O)NO`: 40%; for `CC[C@H](C)[C@H](NS(=O)(=O)c1cccc(-c2ccc(Cl)cc2Cl)c1)C(=O)NO`: 48%.
Same read-out and setting: the same measure for `CC[C@H](C)[C@H](NC(=O)c1cccc(-c2ccccc2Cl)c1)C(=O)NO`: 50%; for `CC[C@H](C)[C@H](NC(=O)c1cccc(-c2cc3ccccc3o2)c1)C(=O)NO`: 80%.
